Test results taken from patent US12285512B2, “Composition comprising allulose as active ingredient for skin whitening” (CJ CHEILJEDANG CORPORATION, priority 2018, dated 2025).
“Also recorded” adds a separate entry of the source.

Experiments:
tyrosinase from mushroom [1] = assay: Quantitative LC analysis of substrate (catechol) in the tyrosinase enzyme reactant; type: biochemical; details: 50 mM sample; for Reduction rate of catechol compared to initial stage of reaction: 0 to 60 min, D.W. control 8.2%; for Reduction rate of catechol compared to initial stage of reaction / amount of catechol in the enzyme reactant: 37° C.; for tyrosinase activity (from catechol consumption, Table 2): LC quantification of catechol
Protocol: (§1) An enzyme solution was prepared by dissolving 0.2 mg/ml of tyrosinase from mushroom (25 KU, 2687 units/mg solid) in 50 mM sodium phosphate buffer (pH 6.5). […] As a substrate, 30 mM catechol, an enzyme solution, and 100 mM sodium phosphate buffer (pH 6.5) were mixed so that the mixing ratio of catechol:enzyme solution:sodium phosphate buffer was 5:1:4. […] As a co-sample solution, DW was added instead of the enzyme solution. After mixing, absorbance was measured at 420 nm.
A catechol standard preparation was diluted according to concentration, and then was subjected to LC analysis to obtain a standard curve of the catechol. 200 μl of each enzyme reaction solution obtained in Experimental Example 2-1 above was added into a PCR tube, and was reacted at 37° C. for 0 minutes (an enzyme reaction product in which the enzyme was inactivated by heating each enzyme reaction solution for 10 minutes), 10 minutes, 20 minutes, 30 minutes, and 60 minutes to prepare an enzyme reactant for each reaction time. The reaction was stopped using a heat block. The reaction was stopped according to the planned time and heated in a heat block at 105° C. for 10 minutes, and then put in ice and cooled for 10 minutes. The PCR tube was centrifuged twice using a centrifuge. LC analysis was carried out by a typical analytical method. The enzyme reactant was filtered with a 1-ml syringe. The filtered enzyme reactant was injected into an insert, and was subjected to LC analysis. The amount of catechol in the enzyme reactant was measured according to the standard curve, which is obtained in advance, for quantifying catechol.

Murine melanocytes = assay: Inhibitory effect on melanogenesis: intracellular melanin (OD405) in a-MSH-treated murine melanocytes; type: cell-based; details: 50 μM a-MSH, 72 hours, FIG. 1
Protocol: Murine melanocytes were seeded on each 6-well plate at 1×10^4 cells/well. In a sample treatment group 24 hours after the seeding, cells were treated with allulose (CJ CheilJedang, 98% or higher purity) at a concentration of 0.01 wt %, 0.1 wt %, and 1 wt %. In a positive control group, cells were treated with arbutin at 0.02 wt %. A comparative group was treated with 1 wt % of glucose (Sigma Aldrich) or 1 wt % of fructose (Sigma Aldrich). An untreated group (control) was not treated with a sample, or a-MSH inducing melanin production. The sample treatment group, the positive control group, the comparative group, and the negative control group were treated with 50 μM of a-MSH. After 72 hours of treatment, cells were recovered and lysed with NaOH to detect intracellular melanin. The absorbances (OD405) of the untreated group, the negative control group (treated with only a-MSH), the sample treatment group (treated with a-MSH and each sample by concentration), and the positive control group (treated with a-MSH and arbutin) were measured.

tyrosinase from mushroom [2] = assay: Polyphenol oxidase (tyrosinase from mushroom) activity, catechol substrate, absorbance at 420 nm; type: biochemical; details: 50 mM sample, 30 mM catechol substrate, pH 6.5; FIG. 2
Protocol: as §1

[3] = reaction time 0 min (enzyme inactivated by heating)

OC[C@H]1O[C@@](CO)(O[C@H]2O[C@H](CO)[C@@H](O)[C@H](O)[C@H]2O)[C@@H](O)[C@@H]1O [Comparative Example 1, sucrose]
Reduction rate of catechol compared to initial stage of reaction (tyrosinase from mushroom [1]): 8.1% | tyrosinase activity (from catechol consumption, Table 2) (tyrosinase from mushroom [1]): not inhibited at all | amount of catechol in the enzyme reactant (tyrosinase from mushroom [1]; [3]): 3296.7 ppm | amount of catechol in the enzyme reactant (tyrosinase from mushroom [1]; reaction time 30 min): 3112.0 ppm | amount of catechol in the enzyme reactant (tyrosinase from mushroom [1]; reaction time 60 min): 3031.0 ppm

O=C(CO)C(O)C(O)C(O)CO (centres unmarked) [allulose]
Reduction rate of catechol compared to initial stage of reaction (tyrosinase from mushroom [1]): 6.1% | tyrosinase activity (from catechol consumption, Table 2) (tyrosinase from mushroom [1]): tyrosinase activity was inhibited | amount of catechol in the enzyme reactant (tyrosinase from mushroom [1]; [3]): 3288.7 ppm | amount of catechol in the enzyme reactant (tyrosinase from mushroom [1]; reaction time 30 min): 3126.7 ppm | amount of catechol in the enzyme reactant (tyrosinase from mushroom [1]; reaction time 60 min): 3087.0 ppm | melanogenesis (intracellular melanin, OD405) (Murine melanocytes; 1 wt % of sample): inhibit melanogenesis; also recorded: melanogenesis was significantly inhibited | melanogenesis (intracellular melanin, OD405) (Murine melanocytes; allulose-treated group (0.01, 0.1 and 1 wt %)): melanogenesis was suppressed | tyrosinase activity (absorbance at 420 nm) (tyrosinase from mushroom [2]): tyrosinase activity was inhibited

O=C(CO)[C@@H](O)[C@H](O)[C@H](O)CO [fructose]
Reduction rate of catechol compared to initial stage of reaction (tyrosinase from mushroom [1]): 8.2% | tyrosinase activity (from catechol consumption, Table 2) (tyrosinase from mushroom [1]): not inhibited at all | amount of catechol in the enzyme reactant (tyrosinase from mushroom [1]; [3]): 3236.0 ppm | amount of catechol in the enzyme reactant (tyrosinase from mushroom [1]; reaction time 30 min): 3069.0 ppm | amount of catechol in the enzyme reactant (tyrosinase from mushroom [1]; reaction time 60 min): 2971.0 ppm | melanogenesis (intracellular melanin, OD405) (Murine melanocytes; 1 wt % of sample): melanogenesis was not inhibited at all | tyrosinase activity (absorbance at 420 nm) (tyrosinase from mushroom [2]): not inhibited at all
